Source: a melting point compilation (Tetko et al.)

SMILES	melting point
Cn1c(Cl)c(C=O)c2cc(C=O)ccc21	164 to 166 °C
[N-]=[N+]=Nc1cccc2cccnc12	42 to 44 °C
Cc1cc(NN)nc2c(C)cccc12	168 to 170 °C
NNc1ccc(C(F)(F)F)cn1	61 to 63 °C
CCOc1cc(N)c(Br)cc1OCC	50 to 52 °C
O=C(O)c1ccc(-c2ccccc2Cl)o1	210 to 212 °C
N#CC1CSCCS1 (stereo not drawn)	76 to 78 °C
Fc1ccc(-c2csc3ncnc(Cl)c23)cc1	139 to 141 °C
CC(O)c1ccc(NC(=O)c2ccncc2)cc1 (stereo not drawn)	174 to 176 °C
COc1ccc(-c2ccc(C(=O)O)c(F)c2)c(F)c1	212 to 214 °C
COc1cc(C#N)cc(Cl)c1OC(C)C	84 to 86 °C
O=C(O)c1cccc(S(=O)(=O)Nc2ccc(OCc3ccccc3)cc2)c1	81 to 83 °C
CS(=O)(=O)c1ccc(Br)c(S(=O)(=O)Cl)c1	160 to 162 °C
O=C(Cc1ccccc1)C(Br)c1ccccc1 (stereo not drawn)	47 to 49 °C
CC1CCC(NC(=O)OC(C)(C)C)(C(=O)O)CC1 (stereo not drawn)	151 to 153 °C
N#Cc1nnc2ccccc2c1N	319 to 321 °C
O=C(NCc1ccccc1)c1cccc(O)c1	140 to 142 °C
Cc1cc(C(=O)CCl)c(C)n1-c1cccc(Cl)c1	116 to 118 °C
O=C(O)c1ccc(Oc2ccc(Cl)cc2Cl)cc1	168 to 170 °C
O=[N+]([O-])c1c(F)ccc2ncccc12	84 to 86 °C
CC(Oc1ccc(F)cc1)C(=O)NN (stereo not drawn)	164 to 167 °C
Cc1c(CCl)cc(C(=O)O)cc1CCl	157 to 159 °C
CON(C)S(=O)(=O)c1cccc(C(=O)O)c1	134 to 138 °C
CCc1c(C(=O)O)cnn1Cc1ccccc1	124 to 126 °C
NC(=O)c1cc(-c2ccccc2)sc1NC(=O)CCl	208 to 210 °C
COC(=O)COc1ccc(N)c2ccccc12	83 to 85 °C

SMILES	melting point
O=C(O)C1(O)CCSCC1	118 to 120 °C
O=C1c2ccccc2C(=O)N1CCCc1nn[nH]n1	79 to 81 °C
COc1ccccc1C(N)=NO	105 to 107 °C
Cc1[nH][nH]c(=O)c1CCO	183 to 185 °C
COC(=O)c1ccc(C=O)o1	79 to 81 °C
Nc1cc(Br)c[nH]c1=S	190 to 192 °C
O=C(O)CCc1cc(Br)ccc1F	84 to 86 °C
Cn1c(Cl)cnc1CC#N	142 to 144 °C
Cc1sc(=O)n(CC(=O)O)c1C	186 to 188 °C
CC(=O)NC(C)(C)C(=O)O	190 to 192 °C
O=C(O)c1cc(Br)c(S(=O)(=O)Cl)c(Br)c1	199 to 201 °C
Cc1ccc(NC(=O)OCC(F)(F)F)cc1	89 to 93 °C
O=[N+]([O-])c1ccc(-c2ncc(CO)o2)cc1	154 to 156 °C
COc1ccccc1C(C)NC(=O)C(C)Cl (stereo not drawn)	109 to 111 °C
COCCc1ccc(OCCCC(=O)O)cc1	47 to 49 °C
Cc1cc(C=O)c(C)n1Cc1ccco1	87 to 89 °C
COc1ccc(C(=O)O)cc1S(=O)(=O)NC(C)(C)C	218 to 220 °C
CCN(CC)S(=O)(=O)c1ccc2c(c1)CCN2	80 to 82 °C
O=C(O)CSc1nc2cc(Cl)ccc2n1Cc1ccccc1	155 to 157 °C
Cc1ccc(S(=O)(=O)N(O)c2ccccc2)cc1	36 to 40 °C
CS(=O)(=O)Cc1c(C(=O)O)oc2ccccc12	218 to 220 °C
CCc1c(C(=O)Nc2cc(S(=O)(=O)N(CC)CC)ccc2O)[nH]c(C)c1C(C)=O	229 to 231 °C
Nc1cccc(OCc2cccnc2)c1	97 to 99 °C
COc1ccc(C(=O)N(C)C)cc1N	119 to 121 °C
O=C(O)CC(Br)C(=O)c1cccs1 (stereo not drawn)	125 to 127 °C
CNc1cc(C(F)(F)F)nc2ccccc12	159 to 161 °C

SMILES	melting point
O=Cc1c[nH]nc1-c1cccc(Cl)c1	139 to 141 °C
C=CCn1c(C)nnc1S	264 to 266 °C
c1cc2c(s1)C1(CCNCC1)OCC2	95 to 97 °C
Nc1ccc2c(c1)oc1ccccc12	89 to 91 °C
Nc1ccc(-c2cn3ccsc3n2)cc1	199 to 201 °C
Nc1nc(-c2c(F)cccc2F)n[nH]1	218 to 220 °C
OC(c1ccc(Br)cc1)C(F)(F)F (stereo not drawn)	50 to 52 °C
COc1ccc(C(CN)c2c[nH]c3ccccc23)cc1 (stereo not drawn)	127 to 129 °C
Cc1csc(-c2no[nH]c2=N)n1	147 to 149 °C
OCC1(NCCc2ccccc2)CCCC1	86 to 88 °C
Ic1ccc(OCc2ccncc2)cc1	152 to 154 °C
O=C(O)c1cc([N+](=O)[O-])cc([N+](=O)[O-])c1F	204 to 206 °C
Nc1ccccc1OCCN1CC(=O)Nc2ccccc21	147 to 149 °C
O=S(=O)(Cl)c1cc2c(cc1Cl)OCCCO2	92 to 94 °C
CC1(CCc2ccccc2)NC(=O)NC1=O (stereo not drawn)	179 to 181 °C
COc1ccc(C(=O)NCC(=O)O)cc1OC	198 to 200 °C
COc1ccc(O)c(C(=O)c2ccccc2)c1	81 to 83 °C
O=C(O)CNC(=O)c1ccccc1OC(F)F	66 to 68 °C
N#Cc1ccc(Oc2cccnc2)cc1	50 to 52 °C
O=C1COc2ccc(Br)cc2N1CCCl	117 to 119 °C
COc1ccc(C(=O)NC(C(=O)O)c2ccccc2)cc1 (stereo not drawn)	187 to 189 °C
CS(=O)(=O)Nc1ccc(Cl)cc1C(=O)O	199 to 201 °C
O=C(O)CSCCc1ccccc1	56 to 58 °C
O=C(O)c1cccc(S(=O)(=O)CC(F)(F)F)c1	192 to 194 °C

Now from value to compound:

melting point	SMILES
181 to 183 °C	NS(=O)(=O)c1cccc(-n2cnnn2)c1
201 to 203 °C	O=S1CCNc2ccccc21 (stereo not drawn)
134 to 136 °C	O=C(O)C1CCCN1C(=O)c1ccccc1O (stereo not drawn)
151 to 153 °C	O=C(O)c1ccc(CN2CCCC2=O)cc1
173 to 175 °C	O=Cc1cc(C(=O)O)cs1
128 to 130 °C	COC(=O)c1c(-c2cnn(C)c2)csc1N
93 to 95 °C	Cn1ncnc1-c1cccc(N)c1
109 to 111 °C	O=C(O)c1ccnc(OCC(F)(F)F)c1
291 to 293 °C	O=C(O)c1c2c(nc3ccc(Br)cc13)CCCC2
105 to 107 °C	CCOC(=O)c1sc2nc(CN3CCCCC3)nc(Cl)c2c1C
106 to 108 °C	Nc1cccc(CS(=O)(=O)C2CCCCC2)c1
96 to 98 °C	Cn1ccnc1CC(=O)c1ccccc1
65 to 67 °C	CC1CCC(C)N1c1cn[nH]c1 (stereo not drawn)
224 to 226 °C	Nc1cccc(C(=O)Nc2ccncc2)c1
129 to 131 °C	CC(Oc1cccc(O)c1)C(N)=O (stereo not drawn)
121 to 123 °C	CCC(C)NC(=O)C1CC(C)Nc2ccccc21 (stereo not drawn)
240 to 242 °C	O=S(=O)(c1nnc[nH]1)N1CCNCC1
142 to 144 °C	Cc1c(NC(=O)CSc2nnc(N)s2)c(=O)n(-c2ccccc2)n1C
181 to 183 °C	Cc1ccc(S(=O)(=O)N2CCC(C(=O)O)CC2)cc1
135 to 137 °C	CC(C(=O)Nc1cccc(N)c1)n1cccn1 (stereo not drawn)
135 to 137 °C	CCOC(=O)Cc1nnc(S)n1C
128 to 130 °C	N#Cc1cc(Cl)ccc1OC1CCOC1 (stereo not drawn)
174 to 176 °C	Cn1ccc(C(=O)N2CCC(CO)CC2)cc1=O

melting point	SMILES
140 to 142 °C	O=C(Nc1cccnc1)OCC(F)(F)F
194 to 196 °C	O=C(CCCl)Nc1ccc(N2CCCC2=O)cc1
251 to 253 °C	Cc1nc(-c2ccc(F)cc2)sc1C(=O)O
111 to 113 °C	c1cnc2c(c1)NCCO2
63 to 65 °C	O=C(c1cc2ccccc2o1)C1CC1
132 to 134 °C	CC(=O)c1ccc(S(=O)(=O)N2CCCCC2C(=O)O)cc1 (stereo not drawn)
176 to 178 °C	CC(C)C(C(N)=O)c1cccnc1 (stereo not drawn)
79 to 81 °C	Cn1ccc(N2CCCC(N)C2=O)n1 (stereo not drawn)
106 to 108 °C	Cc1cc(CN2CCSCC2)ccc1N
64 to 66 °C	Clc1ccc(OC2CCCNC2)nc1 (stereo not drawn)
260 to 262 °C	O=C(O)c1ccc(-c2ccc(Cl)cc2)s1
294 to 296 °C	NC(=O)c1nnc(O)nc1O
115 to 117 °C	CC(C)Oc1ccc(C(=O)O)cc1N
83 to 85 °C	CC(=O)c1ccc(N)cc1C
114 to 116 °C	COc1ccc2c(c1)C(=O)CCN2
230 to 232 °C	Cn1cc(-c2csc(N)n2)cn1
149 to 151 °C	COC(=O)N1CCc2cc(N)ccc21
235 to 237 °C	Sc1n[nH]c(C2CC2)n1
298 to 300 °C	O=C(O)c1csc(Nc2ccccn2)n1
141 to 144 °C	CCN(CC)S(=O)(=O)c1ccc(N2CCCC2)c(C(=O)O)c1
115 to 117 °C	COC(=O)c1ccc(N)s1
162 to 164 °C	Nn1c(S)nnc1C1CCCCO1 (stereo not drawn)
129 to 131 °C	CC1C(=O)NCCN1C(=O)c1cccs1 (stereo not drawn)

melting point	SMILES
256 to 258 °C	Nc1ccc(C(=O)Nc2nccs2)cc1
127 to 129 °C	Cn1cc(/C=C/[N+](=O)[O-])cn1
< 17 °C	CC1N=C(S)N(C2CC2)C1=O (stereo not drawn)
62 to 64 °C	O=C(O)CCn1cccc1
286 to 288 °C	NC(=O)c1ccc(C(=O)O)o1
185 to 187 °C	O=C(O)c1nccnc1C(=O)N1CCOCC1
114 to 116 °C	Cc1cc(C(=O)O)c(C)s1
177 to 179 °C	NC(=O)C1CCCn2ccnc21 (stereo not drawn)
213 to 215 °C	O=C(O)c1c[nH]c2ncccc12
99 to 101 °C	O=C1NCCCC1C(F)(F)F (stereo not drawn)
122 to 124 °C	CN(c1ccc(C(=N)N)cc1)C1CCCCC1
169 to 171 °C	Cc1ccc(C(=O)NO)cc1O
249 to 251 °C	Cc1cccc(C(=O)O)c1NC(=O)c1ccncc1
218 to 220 °C	NC(=O)c1ccc(NCCO)c([N+](=O)[O-])c1
111 to 113 °C	CN1CCC(O)(c2ccccc2)CC1
199 to 201 °C	O=C(CCl)N1CCN(C(=O)C2COc3ccccc3O2)CC1 (stereo not drawn)
68 to 70 °C	O=C(CN1CCNCC1)Nc1cccc(F)c1
138 to 140 °C	O=C(O)C1CCN(C(=O)NCc2ccco2)CC1
199 to 201 °C	O=C(O)c1cc([N+](=O)[O-])c2nsnc2c1
159 to 161 °C	CS(=O)(=O)N1CCC(C(=O)O)CC1
294 to 296 °C	NC1(C(=O)O)CCS(=O)(=O)CC1
